Each structure is given as a SMILES string. Structures can show the parent of a compound that is named as a salt. Where two headings read alike, the source gives them in different places.

Test in all cases: AK assay 384-well format, Prestwick library screening
The subject of test [1] is A. baumannii strain 98-37-09. Format: cell-based, Acinetobacter baumannii. The following applies: 50 μM final drug concentration; for fold induction at 50 µM: Acinetobacter baumannii, 983709, 3 h.
Test [2] relates to E. cloacae. Format: cell-based, Enterobacter cloacae. The following applies: 50 μM final drug concentration; for fold induction at 50 µM: Enterobacter cloacae, 3 h.
Test [3] relates to K. pneumoniae. Format: cell-based, Klebsiella pneumoniae. The following applies: 50 μM final drug concentration; for fold induction at 50 µM: Klebsiella pneumoniae, 3 h.
The subject of test [4] is E. coli. Format: cell-based, Escherichia coli. The conditions noted are these: 50 μM final drug concentration; for fold induction at 50 µM: Escherichia coli, 3 h.
Test [5] relates to E. faecium. Format: cell-based, Enterococcus faecium. The following applies: 50 μM final drug concentration; for fold induction at 50 µM: Enterococcus faecium, 3 h.
The subject of test [6] is P. aeruginosa. Format: cell-based, Pseudomonas aeruginosa. The following applies: 50 μM final drug concentration; for fold induction at 50 µM: Pseudomonas aeruginosa, 3 h.
The test system of test [7] is S. aureus strain USA300-0114. Format: cell-based, Staphylococcus aureus. The conditions noted are these: 50 μM final drug concentration; for fold induction at 50 µM: Staphylococcus aureus, USA300, 3 h.
The mark [8] stands for this setting: planktonic A. baumannii, positive cutoff 3-fold increase, read-out: AK-based Prestwick library screening result, A. baumannii (fold increase in extracellular AK activity).
[9] abbreviates: planktonic E. cloacae, positive cutoff 3-fold increase, read-out: AK-based Prestwick library screening result, E. cloacae (fold increase in extracellular AK activity).
The mark [10] stands for this setting: planktonic K. pneumoniae, positive cutoff 3-fold increase, read-out: AK-based Prestwick library screening result, K. pneumoniae (fold increase in extracellular AK activity).
The mark [11] stands for this setting: planktonic E. coli, positive cutoff 3-fold increase, read-out: AK-based Prestwick library screening result, E. coli (fold increase in extracellular AK activity).
Setting [12] is: planktonic E. faecium, positive cutoff 3-fold increase, read-out: AK-based Prestwick library screening result, E. faecium (fold increase in extracellular AK activity).
Setting [13] is: planktonic P. aeruginosa, positive cutoff 3-fold increase, read-out: AK-based Prestwick library screening result, P. aeruginosa (fold increase in extracellular AK activity).
The mark [14] stands for this setting: planktonic S. aureus, positive cutoff 3-fold increase, read-out: AK-based Prestwick library screening result, S. aureus (fold increase in extracellular AK activity).
Setting [15] is: planktonic, cutoff for positive 3-fold increase, read-out: AK-based Prestwick Library Screening Results, A. baumannii (fold increase in extracellular AK activity).
Where [16] appears, read: planktonic, cutoff for positive 3-fold increase, read-out: AK-based Prestwick Library Screening Results, E. cloacae (fold increase in extracellular AK activity).
The mark [17] stands for this setting: planktonic, cutoff for positive 3-fold increase, read-out: AK-based Prestwick Library Screening Results, K. pneumoniae (fold increase in extracellular AK activity).
Setting [18] is: planktonic, cutoff for positive 3-fold increase, read-out: AK-based Prestwick Library Screening Results, E. coli (fold increase in extracellular AK activity).
Setting [19] is: planktonic, cutoff for positive 3-fold increase, read-out: AK-based Prestwick Library Screening Results, E. faecium (fold increase in extracellular AK activity).
[20] abbreviates: planktonic, cutoff for positive 3-fold increase, read-out: AK-based Prestwick Library Screening Results, P. aeruginosa (fold increase in extracellular AK activity).
The mark [21] stands for this setting: planktonic, cutoff for positive 3-fold increase, read-out: AK-based Prestwick Library Screening Results, S. aureus (fold increase in extracellular AK activity).
[22] abbreviates: planktonic, cutoff for positive 3-fold increase.

On to `CC12CC3CC(C)(C1)CC(N)(C3)C2` [Memantine Hydrochloride], for which the fold induction at 50 µM stood at 0.7 in test [1] (setting [8]); 0.7 in test [2] (setting [9]); 0.5 in test [3] (setting [10]); 0.6 in test [4] (setting [11]); 0.9 in test [5] (setting [12]); 0.6 in test [6] (setting [13]). The fold induction at 50 µM in test [7] (setting [14]) stood at 0.6.

In the case of `CC(COc1ccccc1)N(CCCl)Cc1ccccc1` (stereo not shown) [Phenoxybenzamine hydrochloride], the fold induction at 50 µM in test [1] ([…], read-out: AK-based Prestwick Library Screening Results, A. baumannii (fold increase in extracellular AK activity)) worked out at 1.3; in test [2] ([…], read-out: AK-based Prestwick Library Screening Results, E. cloacae (fold increase in extracellular AK activity)), 1.4; in test [3] ([…], read-out: AK-based Prestwick Library Screening Results, K. pneumoniae (fold increase in extracellular AK activity)) it was 1.2; in test [4] ([…], read-out: AK-based Prestwick Library Screening Results, E. coli (fold increase in extracellular AK activity)) it was 1.4; in test [5] ([…], read-out: AK-based Prestwick Library Screening Results, E. faecium (fold increase in extracellular AK activity)), 0.9; in test [6] ([…], read-out: AK-based Prestwick Library Screening Results, P. aeruginosa (fold increase in extracellular AK activity)) it was 1.1. Further, the fold induction at 50 µM in test [7] ([…], read-out: AK-based Prestwick Library Screening Results, S. aureus (fold increase in extracellular AK activity)) was 1.1.

In the case of `Cc1c2ccncc2c(C)c2c1[nH]c1ccccc12` [Ellipticine], the fold induction at 50 µM was 4.1 in test [1] (setting [15]); 1.8 in test [2] (setting [16]); 1 in test [3] (setting [17]); 1.3 in test [4] (setting [18]); 1.3 in test [5] (setting [19]); 1.2 in test [6] (setting [20]). In addition, in test [7] (setting [21]), the fold induction at 50 µM was 0.8.

As for `CSc1ccc2c(c1)C(N1CCN(C)CC1)Cc1ccccc1S2.O=C(O)/C=C\C(=O)O` (stereo not shown) [Methiothepin maleate], the “AK-based Prestwick Library Screening Results, A. baumannii (fold increase in extracellular AK activity)” value in test [1] (setting [22]) is recorded as 1.5. The “AK-based Prestwick Library Screening Results, E. cloacae (fold increase in extracellular AK activity)” value in test [2] (setting [22]) is on record as 1.8. The “AK-based Prestwick Library Screening Results, K. pneumoniae (fold increase in extracellular AK activity)” value in test [3] (setting [22]) came out at 1.3. Also, in test [4] (setting [22]), the “AK-based Prestwick Library Screening Results, E. coli (fold increase in extracellular AK activity)” value was found to be 1.4. Also, the “AK-based Prestwick Library Screening Results, E. faecium (fold increase in extracellular AK activity)” value in test [5] (setting [22]) was determined as 1.0. For the same molecule, in test [6] (setting [22]), the “AK-based Prestwick Library Screening Results, P. aeruginosa (fold increase in extracellular AK activity)” value is given as 1.1. In addition, the “AK-based Prestwick Library Screening Results, S. aureus (fold increase in extracellular AK activity)” value in test [7] (setting [22]) was determined as 1.3.

For the molecule `Cc1cccc(Nc2ccncc2S(=O)(=O)NC(=O)NC(C)C)c1` [Torsemide], the fold induction at 50 µM in test [1] (setting [8]) was 1.6; in test [2] (setting [9]), 1.4; in test [3] (setting [10]), 1.3; in test [4] (setting [11]), 1.1; in test [5] (setting [12]), 1; in test [6] (setting [13]) it was 1.1. Also, in test [7] (setting [14]), the fold induction at 50 µM was 1.5.

As for `C[C@]12CCC(=O)C=C1CC[C@@H]1[C@@H]2[C@@H](O)C[C@@]2(C)[C@H]1CC[C@]2(O)C(=O)CO` [Hydrocortisone base], in test [1] (planktonic A. baumannii, cutoff for positive-scoring molecules 3-fold increase), the “AK-based Prestwick Library Screening Results, A. baumannii (increase in extracellular AK activity)” value is given as 1.3. Also, the “AK-based Prestwick Library Screening Results, E. cloacae (increase in extracellular AK activity)” value in test [2] (planktonic E. cloacae, cutoff for positive-scoring molecules 3-fold increase) is given as 1.4. For the same molecule, the “AK-based Prestwick Library Screening Results, K. pneumoniae (increase in extracellular AK activity)” value in test [3] (planktonic K. pneumoniae, cutoff for positive-scoring molecules 3-fold increase) was 0.9. Further, in test [4] (planktonic E. coli, cutoff for positive-scoring molecules 3-fold increase), the “AK-based Prestwick Library Screening Results, E. coli (increase in extracellular AK activity)” value is reported as 1.1. For the same molecule, the “AK-based Prestwick Library Screening Results, E. faecium (increase in extracellular AK activity)” value in test [5] (planktonic E. faecium, cutoff for positive-scoring molecules 3-fold increase) was determined as 1.0. Besides, the “AK-based Prestwick Library Screening Results, P. aeruginosa (increase in extracellular AK activity)” value in test [6] (planktonic P. aeruginosa, cutoff for positive-scoring molecules 3-fold increase) was found to be 1.1. In addition, in test [7] (planktonic S. aureus, cutoff for positive-scoring molecules 3-fold increase), the “AK-based Prestwick Library Screening Results, S. aureus (increase in extracellular AK activity)” value came to 1.3.

As for `O=c1[nH]c(=O)n([C@H]2C[C@H](O)[C@@H](CO)O2)cc1I` [Idoxuridine], the fold induction at 50 µM in test [1] (384-well format, cutoff for positive-scoring molecules 3-fold increase, read-out: AK-based Prestwick Library Screening Results, A. baumannii (increase in extracellular AK activity)) was 0.7; in test [2] (384-well format, cutoff for positive-scoring molecules 3-fold increase, read-out: AK-based Prestwick Library Screening Results, E. cloacae (increase in extracellular AK activity)), 0.8; in test [3] (384-well format, cutoff for positive-scoring molecules 3-fold increase, read-out: AK-based Prestwick Library Screening Results, K. pneumoniae (increase in extracellular AK activity)), 0.6; in test [4] (384-well format, cutoff for positive-scoring molecules 3-fold increase, read-out: AK-based Prestwick Library Screening Results, E. coli (increase in extracellular AK activity)) it was 0.7; in test [5] (384-well format, cutoff for positive-scoring molecules 3-fold increase, read-out: AK-based Prestwick Library Screening Results, E. faecium (increase in extracellular AK activity)), 1; in test [6] (384-well format, cutoff for positive-scoring molecules 3-fold increase, read-out: AK-based Prestwick Library Screening Results, P. aeruginosa (increase in extracellular AK activity)), 0.6. Moreover, in test [7] (384-well format, cutoff for positive-scoring molecules 3-fold increase, read-out: AK-based Prestwick Library Screening Results, S. aureus (increase in extracellular AK activity)), the fold induction at 50 µM turned out to be 0.7.

For the molecule `O=C1c2ccccc2C(=O)C1c1ccccc1` [Phenindione], the fold induction at 50 µM in test [1] (setting [15]) was 1.1; in test [2] (setting [16]), 1.3; in test [3] (setting [17]), 1.1; in test [4] (setting [18]) it was 1.2; in test [5] (setting [19]) it was 0.9; in test [6] (setting [20]), 0.9. Moreover, the fold induction at 50 µM in test [7] (setting [21]) is 1.1.

For `C[C@]12CC[C@H](O)C[C@H]1CC[C@@H]1[C@@H]2CC[C@]2(C)[C@@H](C3=CC(=O)OC3)CC[C@]12O` [Digitoxigenin], the fold induction at 50 µM in test [1] (planktonic A. baumannii, […], read-out: AK-based Prestwick Library Screening Results, A. baumannii (increase in extracellular AK activity)) stood at 0.8; in test [2] (planktonic E. cloacae, […], read-out: AK-based Prestwick Library Screening Results, E. cloacae (increase in extracellular AK activity)) it was 1.2; in test [3] (planktonic K. pneumoniae, […], read-out: AK-based Prestwick Library Screening Results, K. pneumoniae (increase in extracellular AK activity)) it was 0.7; in test [4] (planktonic E. coli, […], read-out: AK-based Prestwick Library Screening Results, E. coli (increase in extracellular AK activity)), 0.9; in test [5] (planktonic E. faecium, […], read-out: AK-based Prestwick Library Screening Results, E. faecium (increase in extracellular AK activity)) it was 0.9; in test [6] (planktonic P. aeruginosa, […], read-out: AK-based Prestwick Library Screening Results, P. aeruginosa (increase in extracellular AK activity)), 0.8. The fold induction at 50 µM in test [7] (planktonic S. aureus, […], read-out: AK-based Prestwick Library Screening Results, S. aureus (increase in extracellular AK activity)) was determined as 0.6.

With `Cc1onc(-c2c(Cl)cccc2Cl)c1C(=O)N[C@@H]1C(=O)N2[C@@H]1SC(C)(C)[C@@H]2C(=O)O` [Dicloxacillin sodium salt], the fold induction at 50 µM is 1.5 in test [1] (setting [15]); 1.2 in test [2] (setting [16]); 0.9 in test [3] (setting [17]); 1.2 in test [4] (setting [18]); 1 in test [5] (setting [19]); 1.4 in test [6] (setting [20]). The fold induction at 50 µM in test [7] (setting [21]) amounted to 7.1.

Values taken from patent US10004701B2, “Methods and compositions for treating infection” (UNIVERSITY OF ROCHESTER, priority 2012, dated 2018).
